Source: article PMC6792352, “Limited Chemical Structural Diversity Found to Modulate Thyroid Hormone Receptor in the Tox21 Chemical Library” (Environmental Health Perspectives, 2019)
Structures can show the parent of a compound that is named as a salt.

Test: in vitro
Settings: rat, gh3-tre-luc cells, AC50 (uM) modified / 1000

Structure (SMILES)	CC50 at 24 h
CC(C)CC(C)Nc1ccc(Nc2ccccc2)cc1 (stereo not shown) [N-(1,3-Dimethylbutyl)-N'-phenyl-p-phenylenediamine]	39 µM
Cn1c(=O)c2[nH]cnc2n(C)c1=O [Theophylline]	> 90 µM
Cc1ccc(N)cc1Cl [3-Chloro-4-methylaniline]	> 90 µM
COc1ccccc1[N+](=O)[O-] [1-Methoxy-2-nitrobenzene]	> 90 µM
CCC(C)n1c(=O)[nH]c(C)c(Br)c1=O (stereo not shown) [Bromacil]	> 90 µM
NCC[C@H](O)C(=O)N[C@@H]1C[C@H](N)[C@@H](O[C@H]2O[C@H](CN)[C@@H](O)[C@H](O)[C@H]2N)[C@H](O[C@@H]2O[C@H](CO)C(O)[C@H]2O)[C@H]1O (stereo partly shown) [Butirosin disulfate]	> 20 µM
Cc1cccc(Br)c1 [3-Bromotoluene]	> 90 µM
CC(C)CC(C)N(c1ccccc1)c1ccc(N)cc1 (stereo not shown) [N-(4-Methylpentan-2-yl)-N-phenylbenzene-1,4-diamine]	28.5 µM
Sc1nc(S)nc(S)n1 [Trisodium 2,4,6-trithioxo-1,3,5-triazinane-1,3,5-triide]	> 50 µM
NC(=O)N(O)[C@@H]1C=C[C@H](Oc2cccc(Oc3ccc(F)cc3)c2)C1 [CJ-013790]	> 90 µM
Cc1ccc(N)cc1S(=O)(=O)O [5-Amino-2-methylbenzenesulfonic acid]	> 90 µM
Cc1ccccc1C=O [2-Tolualdehyde]	> 90 µM
CO[C@@H]1COCC[C@@H]1N[C@@H]1CC[C@@](C(=O)N2CCc3ncc(C(F)(F)F)cc3C2)(C(C)C)C1 [MK-812]	> 90 µM
C=C(C)C(=O)OCCCC [Butyl methacrylate]	> 90 µM
S=C1SCN(Cc2ccccc2)CN1Cc1ccccc1 [Sulbentine]	23.1 µM
CC1=C(C(=O)Nc2ccccc2)SCCO1 [Carboxin]	> 90 µM
C1COCCO1 [1,4-Dioxane]	> 90 µM
CC(Oc1ccccc1)C(=O)N[C@@H]1C(=O)N2[C@@H]1SC(C)(C)[C@@H]2C(=O)O (stereo partly shown) [Phenethicillin potassium]	> 20 µM
C[C@]12C=CC(=O)C=C1CC[C@@H]1[C@@H]2C(=O)C[C@@]2(C)[C@H]1CC[C@]2(O)C(=O)CO [Prednisone]	> 90 µM
CNc1ncnc2nc[nH]c12 [(N-6)-Methyladenine]	> 90 µM
CC(C)(C1CCC(O)CC1)C1CCC(O)CC1 (stereo not shown) [4,4'-Propane-2,2-diyldicyclohexanol]	> 90 µM
CCn1cc[n+](C)c1C [1-Ethyl-2,3-dimethylimidazolium bromide]	> 90 µM
CCc1ccc(CCOc2ccc(CC3SC(=O)NC3=O)cc2)nc1 (stereo not shown) [Pioglitazone hydrochloride]	> 90 µM
O=C1CCCCCCCCCCCCCCCO1 [Oxacycloheptadecan-2-one]	> 90 µM
CCN1CCCC(OC(=O)C(c2ccccc2)c2ccccc2)C1 (stereo not shown) [Piperidolate hydrochloride]	11.6 µM
Oc1ccc2c(c1)-c1ccccc1C2 [3-Hydroxyfluorene]	> 90 µM

Structure (SMILES)	CC50 at 24 h
Cc1ccccc1N=O [2-Nitrosotoluene]	> 90 µM
Cc1ccc(Nc2ccc(O)c3c2C(=O)c2ccccc2C3=O)cc1 [D&C Violet 2]	> 90 µM
NC(=O)c1ccc([N+](=O)[O-])cc1Cl [2-Chloro-4-nitrobenzamide]	> 90 µM
C[C@H]1O[C@H](O[C@H]2[C@H](O)[C@@H](O)[C@@H](O[C@@H]([C@H](O)[C@@H](O)C=O)[C@H](O)CO)O[C@@H]2CO)[C@H](O)[C@@H](O)[C@@H]1N[C@H]1C=C(CO)[C@@H](O)[C@H](O)[C@H]1O [Acarbose]	> 50 µM
CC=C(C)C(C)=O [3-Methyl-3-penten-2-one]	> 90 µM
CCc1ccc(O)c(OC)c1 [4-Ethyl-2-methoxyphenol]	> 90 µM
O=C(OCCN1CCCCC1)C(O)(c1ccccc1)c1ccccc1 [Piperilate hydrochloride]	> 50 µM
CC(=O)Nc1ccc(OC(C)=O)cc1 [Diacetamate]	> 50 µM
CCOc1ccc(NC(=O)CC(C)=O)cc1 [N-(4-Ethoxyphenyl)-3-oxobutanamide]	> 90 µM
COC(N)=O [Methyl carbamate]	> 90 µM
CCCCSCCCC [Dibutyl sulfide]	> 90 µM
CC(C)=CCC/C(C)=C/CC/C(C)=C/CC/C=C(\C)CC/C=C(\C)CCC=C(C)C [(E)-Squalene]	> 50 µM
CN1CCc2cc3c(cc2C1O)OCO3 (stereo not shown) [Hydrastinine hydrochloride]	> 90 µM
CCC(C)Nc1c([N+](=O)[O-])cc(C(C)(C)C)cc1[N+](=O)[O-] (stereo not shown) [Butralin]	68.1 µM
Nc1ncnc(Nc2ccccc2)n1 [Amanozine]	> 50 µM
C[C@@H]1[C@H](O)[C@@H](C)/C=C/C=C/CC/C=C/C=C/C=C/C=C/[C@H](O[C@@H]2O[C@H](C)[C@@H](O)[C@H](N)[C@@H]2O)C[C@@H]2O[C@](O)(C[C@@H](O)[C@H](O)CC[C@@H](O)C[C@@H](O)C[C@@H](O)CC(=O)O[C@H]1C)C[C@H](O)[C@H]2C(=O)O [Nystatin]	> 50 µM
CCOC(=O)C(C)OC(=O)c1cc(Oc2ccc(C(F)(F)F)cc2Cl)ccc1[N+](=O)[O-] (stereo not shown) [Lactofen]	> 90 µM
COc1cc2c(N3CCN(C(=O)Nc4ccc(OC(C)C)cc4)CC3)ncnc2cc1OCCCN1CCCCC1 [Tandutinib]	11.4 µM
O=C(O)C1(C(=O)Nc2ccc(Cl)cc2Cl)CC1 [Cyclanilide]	> 90 µM
CC(C)(O)CCC(C)(C)O [2,5-Dimethylhexane-2,5-diol]	> 90 µM
CNCCCC1c2ccccc2C=Cc2ccccc21 [Protriptyline hydrochloride]	7.1 µM
COc1ccc2[nH]c([S+]([O-])Cc3ncc(C)c(OC)c3C)nc2n1 (stereo not shown) [Tenatoprazole]	41.8 µM
CC(C)C(=O)OCCOc1ccccc1 [Phenoxyethyl isobutyrate]	> 90 µM
CO/N=C(/C(=O)OC)c1ccccc1CO/N=C(\C)c1cccc(C(F)(F)F)c1 [Trifloxystrobin]	36.9 µM
OC1CCCCC1c1ccccc1 (stereo not shown) [2-Phenylcyclohexanol]	> 90 µM
O=C1CCC(=O)N1Cl [N-Chlorosuccinimide]	> 90 µM

Structure (SMILES)	CC50 at 24 h
CCCSP(=O)(OCC)SCCC [Ethoprop]	> 90 µM
COc1ccc(CN2CCN(C(c3ccc(F)cc3)c3ccc(F)cc3)CC2)c(OC)c1OC [Lomerizine dihydrochloride]	10.5 µM
CCOC(=O)OCC [Diethyl carbonate]	> 100 µM
C=CCOc1ccc(CC(=O)O)cc1Cl [Alclofenac]	> 50 µM
C=COCC(C)C [Vinyl isobutyl ether]	> 100 µM
CCN1CCCC1=O [1-Ethyl-2-pyrrolidinone]	> 90 µM
CC(=O)Oc1cccc(C(=O)O)c1OC(C)=O [Dipyrocetyl]	> 50 µM
CCCCCC[N+](=O)[O-] [1-Nitrohexane]	> 90 µM
COc1cc(/C=C2\CCC/C(=C\c3ccc(O)c(OC)c3)C2=O)ccc1O [Cyclovalone]	7.98 µM
O=C1c2c(O)cccc2Cc2cccc(O)c21 [Anthralin]	> 90 µM
CC(C)CN(C[C@@H](O)[C@H](Cc1ccccc1)NC(=O)O[C@H]1CO[C@H]2OCC[C@H]21)S(=O)(=O)c1ccc(N)cc1 [Darunavir]	> 50 µM
CCN(CC)C(C)CN1c2ccccc2Sc2ccccc21 (stereo not shown) [Ethopropazine hydrochloride]	10.7 µM
CCCC(CCC)C(=O)O [Valproic acid]	> 90 µM
CC(=O)C1=C(C)[C@@H]2C[C@@]3(C1)[C@H](C)CC[C@H]3C2(C)C [Acetyl cedrene]	56.9 µM
Nc1ccc(F)cc1 [4-Fluoroaniline]	> 100 µM
CC(c1cc2ccccc2s1)N(O)C(N)=O (stereo not shown) [Zileuton]	> 90 µM
CC(=O)Nc1ccc2c(c1)Cc1cc(NC(C)=O)ccc1-2 [2,7-Acetylaminofluorene]	> 90 µM
CCCCCCCCCCCc1ccccc1 [1-Phenylundecane]	> 90 µM
CCCCCCCCCC=O [Decanal]	> 90 µM
Cc1ccccc1CNc1ncnc2c1ncn2[C@@H]1O[C@H](CO)[C@@H](O)[C@H]1O [Metrifudil]	> 50 µM
Cc1[nH]c(=O)c(C#N)cc1-c1ccncc1 [Milrinone]	> 90 µM
BrCCCCCBr [Pentane,1,5-dibromo-]	> 100 µM
CC(Oc1ccc(Cl)cc1Cl)C(=O)O (stereo not shown) [Dichlorprop]	> 90 µM
Cc1c[nH]c(=S)[nH]c1=O [5-Methyl-2-thiouracil]	> 90 µM
Cc1ccc(C)c(O)c1C [2,3,6-Trimethylphenol]	> 90 µM
O=c1[nH]c2ccccc2o1 [2-Benzoxazolinone]	> 90 µM

Same assay, conditions: rat, gh3-tre-luc cells, AC50 (uM) modified / 1000, Tox21_110001=Tox21_110988; viability, 1 nM T3 present, 24 h

Structure (SMILES)	CC50 at 24 h
COC(=O)c1cncn1C(C)c1ccccc1 (stereo not shown) [Metomidate hydrochloride]	> 50 µM

Same assay, conditions: rat, gh3-tre-luc cells, AC50 (uM) modified / 1000, Tox21_110001=Tox21_111131; viability, 1 nM T3 present, 24 h

Structure (SMILES)	CC50 at 24 h
C[C@]12C/C(=C/O)C(=O)C[C@@H]1CC[C@@H]1[C@@H]2CC[C@@]2(C)[C@H]1CC[C@]2(C)O [Oxymetholone]	> 50 µM

Same assay, conditions: rat, gh3-tre-luc cells, AC50 (uM) modified / 1000, Tox21_110001=Tox21_111889; viability, 1 nM T3 present, 24 h

Structure (SMILES)	CC50 at 24 h
Cc1c(Cl)c(=O)oc2cc(OP(=O)(OCCCl)OCCCl)ccc12 [Haloxon]	> 50 µM

Same assay, conditions: rat, gh3-tre-luc cells, AC50 (uM) modified / 1000, Tox21_110001=Tox21_112051; viability, 1 nM T3 present, 24 h

Structure (SMILES)	CC50 at 24 h
C[C@H](N)[C@H](O)c1ccc(O)c(O)c1 [Levonordefrin]	22 µM

Same assay, conditions: rat, gh3-tre-luc cells, AC50 (uM) modified / 1000, Tox21_110001=Tox21_200071; viability, 1 nM T3 present, 24 h

Structure (SMILES)	CC50 at 24 h
C[C@]12C/C(=C/O)C(=O)C[C@@H]1CC[C@@H]1[C@@H]2CC[C@@]2(C)[C@H]1CC[C@]2(C)O [Oxymetholone]	67.3 µM

Same assay, conditions: rat, gh3-tre-luc cells, AC50 (uM) modified / 1000, Tox21_110001=Tox21_202460; viability, 1 nM T3 present, 24 h

Structure (SMILES)	CC50 at 24 h
O=C(O)CC[N+](=O)[O-] [3-Nitropropionic acid]	> 90 µM

Same assay, conditions: rat, gh3-tre-luc cells, AC50 (uM) modified / 1000, Tox21_110001=Tox21_400063; viability, 1 nM T3 present, 24 h

Structure (SMILES)	CC50 at 24 h
c1cc2ccc3cccc4ccc(c1)c2c34 [Pyrene]	> 100 µM
